Consider 21 molecules from PubChem BioAssay AID192 (DTP/NCI, 2004).

Molecules are shown by their SMILES. Where “and” joins values, the source holds several entries; their conditions need not be identical. Identical values can stand only once. Inconclusive results and toxic doses are left out.

This experiment deals with BDF1 mice, B16 melanoma ip, median survival T/C. Description: NCI In Vivo Anticancer Drug Screen. Data for tumor model B16 Melanoma (intraperitoneal) in B6D2F1 (BDF1) mice. Conditions: endpoint: median survival time, higher = longer survival. An outline of the steps: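 Tumor-bearing mice received test compound or vehicle. Survival or tumor size was then measured in both groups. The treated-group figure was divided by the control-group figure.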

The mark [1] stands for this setting: dose: 12.5 mg/kg/injection, schedule: Q01DX009 (ip), vehicle: saline with Tween-80.
The mark [2] stands for this setting: dose: 25.0 mg/kg/injection, schedule: Q01DX009 (ip), vehicle: saline with Tween-80.
[3] abbreviates: dose: 12.5 mg/kg/injection, schedule: Q01DX009 (ip), vehicle: water.
[4] abbreviates: dose: 3.12 mg/kg/injection, schedule: Q01DX009 (ip), vehicle: Klucel (hydroxypropylcellulose) (HPC).
Where [5] appears, read: dose: 12.5 mg/kg/injection, schedule: Q01DX009 (ip), vehicle: Klucel (hydroxypropylcellulose) (HPC).
The mark [6] stands for this setting: dose: 100.0 mg/kg/injection, schedule: Q01DX009 (ip), vehicle: Klucel (hydroxypropylcellulose) (HPC).
[7] abbreviates: dose: 200.0 mg/kg/injection, schedule: Q01DX009 (ip), vehicle: Klucel (hydroxypropylcellulose) (HPC).
Where [8] appears, read: dose: 50.0 mg/kg/injection, schedule: Q01DX009 (ip), vehicle: saline.
Where [9] appears, read: dose: 100.0 mg/kg/injection, schedule: Q01DX009 (ip), vehicle: saline.
Where [10] appears, read: dose: 200.0 mg/kg/injection, schedule: Q01DX009 (ip), vehicle: saline.
The mark [11] stands for this setting: dose: 400.0 mg/kg/injection, schedule: Q01DX009 (ip), vehicle: saline.

As to `CCOc1ccc(C(C)c2cc3c(cc2OC)OCO3)cc1` (stereo not given), the T/C (dose: 12.5 mg/kg/injection, schedule: Q01DX009 (ip), vehicle: distilled water + Tween-80) was 114 % of control and the T/C (dose: 25.0 mg/kg/injection, schedule: Q01DX009 (ip), vehicle: distilled water + Tween-80) was 113 % of control.

For the molecule `N#CCCSC(=S)C1CCCC1=N` (stereo not given), the T/C by setting is: under setting [1], 112 % of control; under setting [2], 106 % of control; (dose: 50.0 mg/kg/injection, schedule: Q01DX009 (ip), vehicle: saline with Tween-80) 103 % of control; (dose: 100.0 mg/kg/injection, schedule: Q01DX009 (ip), vehicle: saline with Tween-80) 103 % of control; (dose: 200.0 mg/kg/injection, schedule: Q01DX009 (ip), vehicle: saline with Tween-80) 108 % of control.

As for `COc1cc2cnccc2cc1O`, the T/C under setting [3] is 104 % of control; the T/C (dose: 25.0 mg/kg/injection, schedule: Q01DX009 (ip), vehicle: water) is 102 % of control; the T/C (dose: 50.0 mg/kg/injection, schedule: Q01DX009 (ip), vehicle: water) was 103 % of control; the T/C (dose: 100.0 mg/kg/injection, schedule: Q01DX009 (ip), vehicle: water) is 109 % of control.

Consider `C[Se]c1ncnc2c1c(C#N)cn2C1OC(CO)C(O)C1O` (stereo not given), for which the T/C by setting is: under setting [4], 92 % of control; under setting [5], 97 % of control; (dose: 25.0 mg/kg/injection, schedule: Q01DX009 (ip), vehicle: Klucel (hydroxypropylcellulose) (HPC)) 90 % of control.

As to `CS(=O)(=O)OCCCNCCCOS(C)(=O)=O`, the T/C is, setting by setting: (dose: 1.25 mg/kg/injection, schedule: Q01DX009 (ip), vehicle: saline) 103 % of control; (dose: 2.5 mg/kg/injection, schedule: Q01DX009 (ip), vehicle: saline) 110 % of control; (dose: 5.0 mg/kg/injection, schedule: Q01DX009 (ip), vehicle: saline) 123 % of control; (dose: 10.0 mg/kg/injection, schedule: Q01DX009 (ip), vehicle: saline) 159 % of control; (dose: 20.0 mg/kg/injection, schedule: Q01DX009 (ip), vehicle: saline) 161 % of control and 175 % of control and 202 % of control; (dose: 30.0 mg/kg/injection, schedule: Q01DX009 (ip), vehicle: saline) 189 % of control. Moreover, the T/C (dose: 40.0 mg/kg/injection, schedule: Q01DX009 (ip), vehicle: saline) was 201 % of control and 215 % of control and 271 % of control; the T/C (dose: 60.0 mg/kg/injection, schedule: Q01DX009 (ip), vehicle: saline) is 228 % of control.

For the molecule `CC(C)NC(=O)N(c1ccccc1)c1ccccc1`, the T/C was 99 % of control (dose: 75.0 mg/kg/injection, schedule: Q01DX009 (ip), vehicle: gum acacia); 103 % of control (dose: 150.0 mg/kg/injection, schedule: Q01DX009 (ip), vehicle: gum acacia); 99 % of control (dose: 300.0 mg/kg/injection, schedule: Q01DX009 (ip), vehicle: gum acacia).

As for `C1CCC(=NN=C2CCCCC2)CC1`, the T/C is 111 % of control (dose: 50.0 mg/kg/injection, schedule: Q04DX003 (sc), vehicle: olive oil, sesame oil, peanut oil); 95 % of control (dose: 100.0 mg/kg/injection, schedule: Q04DX003 (sc), vehicle: olive oil, sesame oil, peanut oil); 102 % of control (dose: 200.0 mg/kg/injection, schedule: Q04DX003 (sc), vehicle: olive oil, sesame oil, peanut oil).

With `O=C(/C=C/C(=O)Oc1ccc(Cl)cc1)Oc1ccc(Cl)cc1`, the T/C under setting [6] is 94 % of control and the T/C under setting [7] is 94 % of control.

Take `Oc1c(CNCCCN2CCCC2)cc(Cl)c2cccnc12`: the T/C is, setting by setting: (dose: 12.5 mg/kg/injection, schedule: Q01DX009 (ip), vehicle: saline) 94 % of control and 95 % of control and 106 % of control; (dose: 25.0 mg/kg/injection, schedule: Q01DX009 (ip), vehicle: saline) 93 % of control and 98 % of control and 102 % of control; under setting [8], 94 % of control and 97 % of control and 98 % of control; under setting [9], 103 % of control and 108 % of control and 109 % of control.

In the case of `OCC1OC(Oc2ccc(O)cc2)C(O)C(O)C1O` (stereo not given), the T/C is, setting by setting: under setting [8], 100 % of control; under setting [9], 99 % of control; under setting [10], 96 % of control; under setting [11], 101 % of control.

`COc1c(OC(C)=O)cc2c(OC(C)=O)c1CC(C)CC(OC)C(O)C(C)/C=C(\C)C(OC(N)=O)C(OC)/C=C\C=C(/C)C(=O)N2` (stereo not given): the T/C is 97 % of control (dose: 12.5 mg/kg/injection, schedule: Q01DX005 (ip), vehicle: other); 98 % of control (dose: 25.0 mg/kg/injection, schedule: Q01DX005 (ip), vehicle: other); 97 % of control (dose: 50.0 mg/kg/injection, schedule: Q01DX005 (ip), vehicle: other); 101 % of control (dose: 100.0 mg/kg/injection, schedule: Q01DX005 (ip), vehicle: other); 94 % of control (dose: 200.0 mg/kg/injection, schedule: Q01DX005 (ip), vehicle: other).

As for `CCOC(=O)C(=O)C(C#N)C(=O)OCC` (stereo not given), the T/C by setting is: under setting [4], 88 % of control; (dose: 6.25 mg/kg/injection, schedule: Q01DX009 (ip), vehicle: Klucel (hydroxypropylcellulose) (HPC)) 109 % of control; (dose: 8.2 mg/kg/injection, schedule: Q01DX009 (ip), vehicle: Klucel (hydroxypropylcellulose) (HPC)) 100 % of control; under setting [5], 96 % of control and 100 % of control; (dose: 18.0 mg/kg/injection, schedule: Q01DX009 (ip), vehicle: Klucel (hydroxypropylcellulose) (HPC)) 96 % of control and 105 % of control.

For `COc1ccccc1NC(=O)Nc1ccc(Nc2ccccc2)cc1`, the T/C by setting is: (dose: 100.0 mg/kg/injection, schedule: Q01DX009 (ip), vehicle: gum acacia) 109 % of control; (dose: 200.0 mg/kg/injection, schedule: Q01DX009 (ip), vehicle: gum acacia) 97 % of control.

With `CCCCCCCCCCCCOCCOCCOCC(N)=O`, the T/C reads like this: under setting [9], 112 % of control; under setting [10], 109 % of control; under setting [11], 90 % of control.

Consider `C#CC(OC(=O)NC1CCCCC1)(c1ccccc1)c1ccccc1`, for which the T/C by setting is: (dose: 6.25 mg/kg/injection, schedule: Q01DX009 (ip), vehicle: saline with Tween-80) 105 % of control; under setting [1], 100 % of control; under setting [2], 113 % of control.

For the molecule `CCCCCCCCN(C)/N=N/c1nc[nH]c1C(N)=O`, the T/C (dose: 37.5 mg/kg/injection, schedule: Q01DX009 (ip), vehicle: saline with Tween-80) was 121 % of control and the T/C (dose: 75.0 mg/kg/injection, schedule: Q01DX009 (ip), vehicle: saline with Tween-80) is 123 % of control.

For `N=C(N)NC(=N)Nc1ccc(NC(=O)Nc2ccc(Nc3c4ccccc4nc4cc([N+](=O)[O-])ccc34)cc2)cc1`, the T/C (dose: 0.8 mg/kg/injection, schedule: Q01DX009 (ip), vehicle: water) was 98 % of control; the T/C (dose: 1.6 mg/kg/injection, schedule: Q01DX009 (ip), vehicle: water) was 100 % of control; the T/C (dose: 3.13 mg/kg/injection, schedule: Q01DX009 (ip), vehicle: water) was 102 % of control; the T/C (dose: 6.25 mg/kg/injection, schedule: Q01DX009 (ip), vehicle: water) was 104 % of control; the T/C under setting [3] is 94 % of control.

With `COc1ccc(NC2=C(C)C(=O)C3=C(C2=O)[C@H](COC(N)=O)[C@]2(OC)[C@@H]4N[C@@H]4CN32)cc1OC`, the T/C is, setting by setting: (dose: 3.0 mg/kg/injection, schedule: Q04DX003 (ip), vehicle: water) 223 % of control; (dose: 6.0 mg/kg/injection, schedule: Q04DX003 (ip), vehicle: water) 312 % of control.

Regarding `NCCS(=O)(=O)O`, the T/C is, setting by setting: under setting [9], 105 % of control; under setting [10], 107 % of control; under setting [11], 110 % of control; (dose: 800.0 mg/kg/injection, schedule: Q01DX009 (ip), vehicle: saline) 102 % of control.

For the molecule `CCOC(=O)Nc1ccc(OC)cc1`, the T/C (dose: 100.0 mg/kg/injection, schedule: Q04DX003 (ip), vehicle: Klucel (hydroxypropylcellulose) (HPC)) was 95 % of control; the T/C (dose: 200.0 mg/kg/injection, schedule: Q04DX003 (ip), vehicle: Klucel (hydroxypropylcellulose) (HPC)) was 100 % of control; the T/C (dose: 400.0 mg/kg/injection, schedule: Q04DX003 (ip), vehicle: Klucel (hydroxypropylcellulose) (HPC)) is 97 % of control.

For the molecule `CCCCCCCC(O)CCCC` (stereo not given), the T/C under setting [6] is 92 % of control; the T/C under setting [7] is 98 % of control; the T/C (dose: 400.0 mg/kg/injection, schedule: Q01DX009 (ip), vehicle: Klucel (hydroxypropylcellulose) (HPC)) is 86 % of control.
